From patent publication US20260166159A1, “KRAS G12D DEGRADATION AGENT, AND PREPARATION METHOD AND USE THEREFOR” (LEADINGTAC PHARMACEUTICAL (SHAOXING) CO., LTD., priority 2022, published 2026)

Experiments:
[1] = molecular target: T1, KRAS-G12D (Homo sapiens, UniProt P01116, G12D); experiment: KRAS-G12D degradation assay (Western Blot), A-427 cells; type: cell-based; conditions: A427 cells, 24 h, class symbols; for Dmax: A-427
T1 construct: endogenous in cells; host or cells: A-427 (ATCC), AGS, AsPc-1, Panc 04.03
Procedure, shortened: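 Western blotting of lysates (5 μg protein) quantified KRAS against a β-actin reference after 24 h exposure to compound at final 0.03–3000 nM in 0.25% DMSO. Cells were A-427, AGS, AsPc-1 or Panc 04.03, all KRAS G12D, at 5×10^5/well. Degradation versus control yielded DC50 and Dmax.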

[2] = tested on: KRAS G12D mutant human gastric cancer cell AGS; experiment: 3D cell proliferation inhibition assay, AGS; type: cell-based; conditions: 168 h, 7 days, CTG, class symbols
Procedure, shortened: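 For this 7-day anchorage-independent assay, 5×10^2 cells per well were exposed to 10000–0.026 nM test compound with 0.2% DMSO at 37 °C. ATP-based luminescence (CTG) gave viability, and percent inhibition versus DMSO controls was curve-fitted to obtain IC50.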

T1 sequence (P01116 1-188 isoform P01116-2 G12D): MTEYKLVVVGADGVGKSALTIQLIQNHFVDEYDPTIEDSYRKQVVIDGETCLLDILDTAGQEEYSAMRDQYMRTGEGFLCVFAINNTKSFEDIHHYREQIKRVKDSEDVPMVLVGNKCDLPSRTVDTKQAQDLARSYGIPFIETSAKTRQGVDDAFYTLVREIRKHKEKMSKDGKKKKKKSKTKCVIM

## C#Cc1c(F)ccc2cc(O)cc(-c3ncc4c(N5CC6CCC(C5)N6)nc(OCC5(CN6CCN(CCC7CCN(C(=O)c8ccc(Cl)c(N9CCC(=O)NC9=O)c8)CC7)CC6)CC5)nc4c3F)c12 [Example 3, 1-(5-(4-(2-(4-((1-(((4-(3,8-diazabicyclo[3.2.1]octan-3-yl)-7-(8-ethynyl-7-fluoro-3-hydroxynaphthalen-1-yl)-8-fluoropyrido[4,3-d]pyrimidin-2-yl)oxy)methyl)cyclopropyl)methyl)piperazin-1-yl)ethyl)piperidine-1-carbonyl)-2-chlorophenyl)dihydropyrimidine-2,4(1H,3H)-dione]
[1]
  DC50: ≤ 50 nM
  Dmax: 50 to 80%
[2]
  IC50: ≤ 50 nM

## CCc1c(F)ccc2cc(O)cc(-c3ncc4c(N5CC6CCC(C5)N6)nc(OCC5(CN6CCN(CC7CCC8(CC7)CCN(C(=O)c7ccc(Cl)c(N9CCC(=O)NC9=O)c7)CC8)CC6)CC5)nc4c3F)c12 [Example 30, 1-(5-(9-((4-((1-(((4-(3,8-diazabicyclo[3.2.1]octan-3-yl)-7-(8-ethyl-7-fluoro-3-hydroxynaphthalen-1-yl)-8-fluoropyrido[4,3-d]pyrimidin-2-yl)oxy)methyl)cyclopropyl)methyl)piperazin-1-yl)methyl)-3-azaspiro[5.5]undecane-3-carbonyl)-2-chlorophenyl)dihydropyrimidine-2,4(1H,3H)-dione]
[1]
  DC50: ≤ 50 nM
  Dmax: 50 to 80%
[2]
  IC50: ≤ 50 nM

## C#Cc1c(F)ccc2cc(O)cc(-c3ncc4c(N5CC6CCC(C5)N6)nc(OCC5(CN6CCN(CCCC7CCN(C(=O)c8ccc(Cl)c(N9CCC(=O)NC9=O)c8)CC7)CC6)CCC5)nc4c3F)c12 [Example 24, 1-(5-(4-(3-(4-((1-(((4-(3,8-diazabicyclo[3.2.1]octan-3-yl)-7-(8-ethynyl-7-fluoro-3-hydroxynaphthalen-1-yl)-8-fluoropyrido[4,3-d]pyrimidin-2-yl)oxy)methyl)cyclobutyl)methyl)piperazin-1-yl)propyl)piperidine-1-carbonyl)-2-chlorophenyl)dihydropyrimidine-2,4(1H,3H)-dione]
[1]
  DC50: ≤ 50 nM
  Dmax: 80 to 100%
[2]
  IC50: 50 to 100 nM

## C#Cc1c(F)ccc2cc(O)cc(-c3ncc4c(N5CC6CCC(C5)N6)nc(OCC5(CN6CCC(CCOCC7CCN(C(=O)c8ccc(Cl)c(N9CCC(=O)NC9=O)c8)CC7)CC6)CC5)nc4c3F)c12 [Example 10]
[1]
  DC50: ≤ 50 nM
  Dmax: 80 to 100%
[2]
  IC50: ≤ 50 nM

## C#Cc1c(F)ccc2cc(O)cc(-c3ncc4c(N5CC6CCC(C5)N6)nc(OCC5(CN6CCC(COCCC7CCN(C(=O)c8ccc(Cl)c(N9CCC(=O)NC9=O)c8)CC7)CC6)CC5)nc4c3F)c12 [Example 21, 1-(5-(4-(2-((1-((1-(((4-(3,8-diazabicyclo[3.2.1]octan-3-yl)-7-(8-ethynyl-7-fluoro-3-hydroxynaphthalen-1-yl)-8-fluoropyrido[4,3-d]pyrimidin-2-yl)oxy)methyl)cyclopropyl)methyl)piperidin-4-yl)methoxy)ethyl)piperidine-1-carbonyl)-2-chlorophenyl)dihydropyrimidine-2,4(1H,3H)-dione]
[1]
  DC50: ≤ 50 nM
  Dmax: 80 to 100%
[2]
  IC50: ≤ 50 nM

## C#Cc1c(F)ccc2cc(O)cc(-c3ncc4c(N5CC6CCC(C5)N6)nc(OCC5(CN6CCN(CC7CCC8(CC7)CCN(C(=O)c7ccc(Cl)c(N9CCC(=O)NC9=O)c7)CC8)CC6)CC5)nc4c3F)c12 [Example 6, 1-(5-(9-((4-((1-(((4-(3,8-diazabicyclo[3.2.1]octan-3-yl)-7-(8-ethynyl-7-fluoro-3-hydroxynaphthalen-1-yl)-8-fluoropyrido[4,3-d]pyrimidin-2-yl)oxy)methyl)cyclopropyl)methyl)piperazin-1-yl)methyl)-3-azaspiro[5.5]undecane-3-carbonyl)-2-chlorophenyl)dihydropyrimidine-2,4(1H,3H)-dione]
[1]
  DC50: ≤ 50 nM
  Dmax: 80 to 100%
[2]
  IC50: ≤ 50 nM

## C#Cc1c(F)ccc2cc(O)cc(-c3ncc4c(N5CC6CCC(C5)N6)nc(OCC5(CN6CCN(CCCCC7CCN(C(=O)c8ccc(Cl)c(N9CCC(=O)NC9=O)c8)CC7)CC6)CC5)nc4c3F)c12 [Example 5, 1-(5-(4-(4-(4-((1-(((4-(3,8-diazabicyclo[3.2.1]octan-3-yl)-7-(8-ethynyl-7-fluoro-3-hydroxynaphthalen-1-yl)-8-fluoropyrido[4,3-d]pyrimidin-2-yl)oxy)methyl)cyclopropyl)methyl)piperazin-1-yl)butyl)piperidine-1-carbonyl)-2-chlorophenyl)dihydropyrimidine-2,4(1H,3H)-dione]
[1]
  DC50: ≤ 50 nM
  Dmax: 80 to 100%
[2]
  IC50: ≤ 50 nM

## C#Cc1cccc2cc(O)cc(-c3ncc4c(N5CC6CCC(C5)N6)nc(OCC5(CN6CCN(CC7CCC8(CC7)CCN(C(=O)c7ccc(Cl)c(N9CCC(=O)NC9=O)c7)CC8)CC6)CC5)nc4c3F)c12 [Example 57, 1-(5-(9-((4-((1-(((4-(3,8-diazabicyclo[3.2.1]octan-3-yl)-7-(8-ethynyl-3-hydroxynaphthalen-1-yl)-8-fluoropyrido[4,3-d]pyrimidin-2-yl)oxy)methyl)cyclopropyl)methyl)piperazin-1-yl)methyl)-3-azaspiro [5.5]undecane-3-carbonyl)-2-chlorophenyl)dihydropyrimidine-2,4(1H,3H)-dione]
[1]
  DC50: ≤ 50 nM
  Dmax: 80 to 100%
[2]
  IC50: ≤ 50 nM

## C#Cc1c(F)ccc2cc(O)cc(-c3ncc4c(N5CC6CCC(C5)N6)nc(OCC(C)(C)CN5CCN(CCCC6CCN(C(=O)c7ccc(Cl)c(N8CCC(=O)NC8=O)c7)CC6)CC5)nc4c3F)c12 [Example 23, 1-(5-(4-(3-(4-(3-((4-(3,8-diazabicyclo[3.2.1]octan-3-yl)-7-(8-ethynyl-7-fluoro-3-hydroxynaphthalen-1-yl)-8-fluoropyrido[4,3-d]pyrimidin-2-yl)oxy)-2,2-dimethylpropyl)piperazin-1-yl)propyl)piperidine-1-carbonyl)-2-chlorophenyl)dihydropyrimidine-2,4(1H,3H)-dione]
[1]
  DC50: 1000 to 10000 nM
  Dmax: 30 to 50%
[2]
  IC50: 50 to 100 nM

## C#Cc1c(F)ccc2cc(O)cc(-c3ncc4c(N5CC6CCC(C5)N6)nc(OCC5(CN6CCN(CC7CCC8(CC7)CCN(C(=O)c7ccc(OC)c(N9CCC(=O)NC9=O)c7)CC8)CC6)CCC5)nc4c3F)c12 [Example 25, 1-(5-(9-((4-((1-(((4-(3,8-diazabicyclo[3.2.1]octan-3-yl)-7-(8-ethynyl-7-fluoro-3-hydroxynaphthalen-1-yl)-8-fluoropyrido[4,3-d]pyrimidin-2-yl)oxy)methyl)cyclobutyl)methyl)piperazin-1-yl)methyl)-3-azaspiro[5.5]undecane-3-carbonyl)-2-methoxyphenyl)dihydropyrimidine-2,4(1H,3H)-dione]
[1]
  DC50: ≤ 50 nM
  Dmax: 50 to 80%

## C#Cc1c(F)ccc2cc(O)cc(-c3ncc4c(N5CC6CCC(C5)N6)nc(OCC5(CN6CCN(CC7CCC8(CC7)CCN(C(=O)c7ccc(Cl)c(N9CCC(=O)N(C)C9=O)c7)CC8)CC6)CC5)nc4c3F)c12 [Example 17, 1-(5-(9-((4-((1-(((4-(3,8-diazabicyclo[3.2.1]octan-3-yl)-7-(8-ethynyl-7-fluoro-3-hydroxynaphthalen-1-yl)-8-fluoropyrido[4,3-d]pyrimidin-2-yl)oxy)methyl)cyclopropyl)methyl)piperazin-1-yl)methyl)-3-azaspiro[5.5]undecane-3-carbonyl)-2-chlorophenyl)-3-methyldihydropyrimidine-2,4(1H,3H)-dione]
[1]
  DC50: 1000 to 10000 nM
  Dmax: < 30%
[2]
  IC50: 50 to 100 nM
